Patent US5698532A, “Pyrimidine nucleosides and methods for treating viral infections with same” (priority 1995, dated 1997)
Read-outs that look alike come from different tables or passages of the source. Blank lines part the entries; values can stand above or below the compound they belong to.

Experiments:
HSV-2 thymidine kinase = HSV-2 thymidine kinase (Human herpesvirus 2, UniProt P89446); experiment: inhibition of HSV-2 thymidine kinase; assay type: biochemical
Description: In this test procedure, the assay mixture contains 50 mmol Tris HCl, pH 8, 5 mmol magnesium chloride, 5 mmol ATP, 0.3 μmol ^3 H-thymidine (50 Ci/mmol), suitably diluted enzyme preparation and various concentrations of test compounds in a total volume of 100 μl. Assays are incubated at 37° C. for 30 minutes and the reaction is terminated by immersion in a boiling water bath for 2 minutes. 85 μl aliquots from each assay are then dried on to DEAE-cellulose paper discs and the unphosphorylated ^3 H-thymidine is removed by washing in 4 mmol ammonium formate. The radioactivity remaining bound to the discs is then measured by scintillation spectrophotometry. The degree of inhibition at each concentration of test compound is expressed as a percentage of the control reaction (100%) after subtracting a measured blank value which represents the amount of radioactivity bound to the disc from a reaction containing heat-inactivated enzymes. The lC50 value, namely the concentration of test compound which inhibits enzyme activity by 50%, is then calculated.

[1] = Oral bioavailability (rat); assay type: in vivo; settings: for bioavailability: in vivo, po
[2] = 37° C., 30 minutes, pH 8, 3H-thymidine, read-out: Activity against HSV-2 TK, IC50

Sequence of HSV-2 thymidine kinase (P89446 whole entry): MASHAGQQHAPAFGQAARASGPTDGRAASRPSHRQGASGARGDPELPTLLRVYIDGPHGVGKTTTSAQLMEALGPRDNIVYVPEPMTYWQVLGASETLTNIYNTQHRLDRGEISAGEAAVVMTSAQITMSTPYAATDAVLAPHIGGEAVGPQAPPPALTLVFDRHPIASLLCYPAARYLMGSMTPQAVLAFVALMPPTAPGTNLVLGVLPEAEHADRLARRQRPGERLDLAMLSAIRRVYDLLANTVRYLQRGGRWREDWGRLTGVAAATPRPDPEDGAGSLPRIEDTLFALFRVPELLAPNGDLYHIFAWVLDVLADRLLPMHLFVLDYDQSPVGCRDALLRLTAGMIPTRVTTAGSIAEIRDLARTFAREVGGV

Oral bioavailability (rat) [1]: 12.9%
Compound: CCc1cn([C@@H]2O[C@H](CNC(=O)C(C)Oc3ccc(Cl)cc3Cl)[C@@H](O)[C@@H]2F)c(=O)[nH]c1=O (single isomer, unassigned) [Compound B, diastereoisomer b]

bioavailability [1]: 14.4%
Compound: CCc1cn([C@@H]2O[C@H](CNC(=O)C(C)Oc3ccc(Cl)cc3Cl)[C@@H](O)[C@@H]2F)c(=O)[nH]c1=O (single isomer, unassigned) [Compound B, diastereoisomer a]

IC50 (HSV-2 thymidine kinase; [2]): 4 nM
Compound: CCc1cn([C@@H]2O[C@H](CNC(=O)C(C)Oc3ccc(Cl)cc3Cl)[C@@H](O)[C@@H]2F)c(=O)[nH]c1=O (mixture of isomers) [Compound B]

The next lines start with the compound.

Compound: CCc1cn([C@H]2C[C@H](O)[C@@H](CNC(=O)C(C)Oc3ccc(Cl)cc3Cl)O2)c(=O)[nH]c1=O (mixture of isomers) [Compound A]
IC50 (HSV-2 thymidine kinase; [2]): 3.7 nM

Compound: CCc1cn([C@H]2C[C@H](O)[C@@H](CNC(=O)C(C)Oc3ccc(Cl)cc3Cl)O2)c(=O)[nH]c1=O (single isomer, unassigned) [Compound A, diastereoisomer a]
bioavailability [1]: 2.84%

Compound: CCc1cn([C@H]2C[C@H](O)[C@@H](CNC(=O)C(C)Oc3ccc(Cl)cc3Cl)O2)c(=O)[nH]c1=O (single isomer, unassigned) [compound A, diastereoisomer b]
Oral bioavailability (rat) [1]: too low to calculate

Compound: CCc1cn([C@@H]2O[C@H](CNC(=O)[C@H](C)Oc3cc(OC)c(Cl)cc3Cl)[C@@H](O)[C@@H]2F)c(=O)[nH]c1=O [Compound (I), 1-[5-[2(S)-(2,4-dichloro-5-methoxy-phenoxy)propionamido]-2,5-dideoxy-2-fluoro-β-D-arabino-furanosyl]-5-ethyluracil]
IC50 (HSV-2 thymidine kinase): 0.18 nM | bioavailability [1]: 26%
